Test results taken from patent publication US7989667B2, “Processes for the crystallization of 2,2,4,4-tetramethylcyclobutanediol” (Eastman Chemical Company, priority 2008, dated 2011).

What was measured:
[1] = Solubility of cis- and trans-2,2,4,4-tetramethylcyclobutanediol in isobutyl isobutyrate (GC of saturated liquid phase); format: physicochemical
Description: All of the solubility data and concentrations of cis and trans TMCD were measured by gas chromotography (GC) using an Agilent 6890GC instrument. The instrument was equipped with a split-splitless injector and flame ionization detection. The column is a DB®-Wax, 30 meter×0.25 mm ID, 0.50 μm film thickness column. The cis/trans ratio of the compositions was calculated from the respective concentrations.
The charge concentration of the isomers is expressed as weight % relative to the saturated concentration of each isomer at a temperature of 62.6° C.
The charge concentration of the isomers is expressed as weight % relative to the saturated concentration of each isomer at a temperature of 62.6° C. The vessel was equipped with a 4-blade flat blade pitched impeller for solids suspension, and the jacket was used to control the temperature of the vessel contents. The vessel was equipped with charging and sampling ports on top and a valve at the base to drain the vessel contents.
The slurry was allowed to stand for one hour sufficient for the solids to saturate the solvent at 6.4° C. At that time, a sample of the solution was drawn from the cell using a fritted pipette so as to remove only the liquid phase. The sample was analyzed for cis and trans isomer content. These values represented the saturated concentration of each isomer at the sampling temperature.
The cell contents were heated to 10.2° C. and the contents were held for a further hour to allow the slurry to equilibrate. A sample was then taken of the solution and analyzed. Following this procedure, data was gathered to 62.6° C.

[2] = Meta-stable zone width in isobutyl isobutyrate (colorimeter transmission on cooling from 90 to 10 °C); format: physicochemical; conditions: for Limit of MZW / MZW (meta-stable zone width): isobutyl isobutyrate; for difference in onset of nucleation between repeated cool-downs: Experiments 3 and 4 of Table 2, same cooling rate 5 °C/hr; for Limit of Meta-Stable Zone Width: Table 1A, in isobutyl isobutyrate, data points shown in FIG. 7
Source text: The meta-stable zone width was estimated by charging 800 grams of a solution containing 100 relative weight % cis-2,2,4,4-tetramethylcyclobutanediol and 69 relative weight % trans-2,2,4,4-tetramethylcyclobutanediol in isobutyl isobutyrate solvent to a 1.2 L jacketed glass vessel. The vessel was equipped with a 4-blade flat blade pitched impeller for solids suspension, and the jacket was used to control the temperature of the vessel contents. The vessel was equipped with charging and sampling ports on top and a valve at the base to drain the vessel. The vessel contents were heated to 90° C., at which temperature both isomers were completely in solution.
All measurements to estimate the meta-stable zone width were made using a Beckmann Instruments PC 800 Colorimeter device. The device operated by transmitting a white light source into the solution which was reflected from a mirror at a distance of several millimeters from the source back to a detector in the probe. When no particles were present in suspension, most of the light was reflected back to the detector. If the solution was relatively transparent, some of the light was adsorbed by the solution and some was diffracted, but the majority was reflected. If crystals were present, a substantial quantity of the white light was adsorbed by the crystal mass and diffracted and less of the light was reflected back to the detector. In order to calibrate the instrument, a reference intensity was measured when no crystals were in suspension, and this was referred to as the 100% transmittance level.
The colorimeter was placed in the vessel such that the probe tip was submerged in the solution. The crystal free solution was cooled from 90° C. to 10° C. at a pre-determined cooling rate indicated in Table 2 and the magnitude of the transmission signal of the white light source monitored. When crystals appeared in solution, the white light source was blocked and the transmission/reflection decreased rapidly. Two distinct step changes in the transmission signal were observed indicating the nucleation of cis- and trans-2,2,4,4-tetramethylcyclobutanediol in suspension. FIG. 8 is a graph showing the solubility of cis-and trans-2,2,4,4-tetramethylcyclobutanediol in isobutyl isobutyrate and operating points for continuous crystallization.

[3] = Table 1A, in isobutyl isobutyrate, extrapolated from the data of FIG. 7
[4] = Table 2, solution in isobutyl isobutyrate used for MZW experiments 1-4
[5] = in isobutyl isobutyrate, 6.4 °C, wt % relative to saturated concentration of each isomer at 62.6 °C
[6] = in isobutyl isobutyrate, 10.2 °C, relative to saturated concentration at 62.6 °C
[7] = in isobutyl isobutyrate, 19 °C, relative to saturated concentration at 62.6 °C
[8] = in isobutyl isobutyrate, 26.2 °C, relative to saturated concentration at 62.6 °C
[9] = in isobutyl isobutyrate, 34.7 °C, relative to saturated concentration at 62.6 °C
[10] = in isobutyl isobutyrate, 39.6 °C, relative to saturated concentration at 62.6 °C
[11] = in isobutyl isobutyrate, 44.5 °C, relative to saturated concentration at 62.6 °C
[12] = in isobutyl isobutyrate, 51.6 °C, relative to saturated concentration at 62.6 °C
[13] = in isobutyl isobutyrate, 58.8 °C, relative to saturated concentration at 62.6 °C
[14] = in isobutyl isobutyrate, 62.6 °C (reference temperature)
[15] = Experiment 1, cooling rate 15 °C/hr
[16] = Experiment 2, cooling rate 10 °C/hr
[17] = Experiment 3, cooling rate 5 °C/hr
[18] = Experiment 4, cooling rate 5 °C/hr

Row | SMILES | Saturated Temperature [1, 3] [°C] | Saturated Temperature [1, 4] [°C] | Solubility [1, 5] [Relative wt %] | Solubility [1, 6] [Relative wt %] | Solubility [1, 7] [Relative wt %] | Solubility [1, 8] [Relative wt %] | Solubility [1, 9] [Relative wt %] | Solubility [1, 10] [Relative wt %] | Solubility [1, 11] [Relative wt %] | Solubility [1, 12] [Relative wt %] | Solubility [1, 13] [Relative wt %] | Solubility [1, 14] [Relative wt %] | Limit of MZW [2, 15] [°C] | MZW (meta-stable zone width) [2, 15] [°C] | Limit of MZW [2, 16] [°C] | MZW (meta-stable zone width) [2, 16] [°C] | Limit of MZW [2, 17] [°C] | MZW (meta-stable zone width) [2, 17] [°C] | Limit of MZW [2, 18] [°C] | MZW (meta-stable zone width) [2, 18] [°C] | further results
1 | CC1(C)[C@H](O)C(C)(C)[C@@H]1O [Cis-2,2,4,4-tetramethylcyclobutanediol, cis-2,2,4,4-tetramethylcyclobutanediol] | 68 | 68 | 0 | 3 | 10 | 17 | 29 | 37 | 47 | 64 | 86 | 100 | 50.94 | 17.06 | 51.77 | 16.23 | 60.38 | 7.62 | 58.24 | 9.76 | difference in onset of nucleation between repeated cool-downs [2]: approximately 2 °C; Limit of Meta-Stable Zone Width [2]: 58.24 °C
2 | CC1(C)[C@H](O)C(C)(C)[C@H]1O [Trans-2,2,4,4-tetramethylcyclobutanediol, trans-2,2,4,4-tetramethylcyclobutanediol] | 57 | 57 | 1 | 3 | 10 | 19 | 32 | 41 | 52 | 69 | 89 | 100 | 48.67 | 8.33 | 49.29 | 7.71 | 50.34 | 6.66 | 50.36 | 6.64 | difference in onset of nucleation between repeated cool-downs [2]: 0.02 °C; Limit of Meta-Stable Zone Width [2]: 50.36 °C
